Among the data in ChEMBL document CHEMBL1150969, “New alkaloids from the papua new guinean sponge agelas nakamurai” (J Nat Prod, 1998) are Activity and IC50 values, retold here.

In brackets after ≈: the same amount, converted by molar mass. Activity calls are given as the source filed them. No cut-off for these calls is given here.

One experiment deals with Escherichia coli. The experiment in a line: Antimicrobial activity against Escherichia coli upto 12.5 ug/ml. The class given is functional, organism-based.
A further experiment has as its system Pseudomonas aeruginosa. Kind of experiment: Antimicrobial activity against Pseudomonas aeruginosa upto 12.5 ug/ml. The class given is functional, organism-based.
Experiment [1] addresses Human immunodeficiency virus type 1 integrase (Human immunodeficiency virus 1) (UniProt Q7ZJM1). The experiment in a line: Inhibition of HIV1 integrase at 10 ug/ml.
The test system of experiment [2] is Staphylococcus epidermidis. The experiment in a line: Antimicrobial activity against Staphylococcus epidermidis 13889. Format: functional, organism-based.
Another experiment relates to Enterococcus faecalis. Kind of experiment: Antimicrobial activity against Enterococcus faecalis 12964. The class given is functional, organism-based.
Experiment [3] deals with Staphylococcus aureus. Kind of experiment: Antimicrobial activity against Staphylococcus aureus 12732. The class given is functional, organism-based.
Experiment [4] has as its system Staphylococcus aureus. Kind of experiment: Antimicrobial activity against methicillin-resistant Staphylococcus aureus. The class given is functional, organism-based.
Another experiment relates to Candida albicans. Kind of experiment: Antimicrobial activity against Candida albicans IFO 1269. Format: functional, organism-based.
For another experiment, the system named is Cryptococcus neoformans. The experiment in a line: Antimicrobial activity against Cryptococcus neoformans TIMM 0354. The class given is functional, organism-based.
A further experiment relates to Enterococcus faecium. The experiment in a line: Antimicrobial activity against Enterococcus faecium 12367. Format: functional, organism-based.

Human immunodeficiency virus type 1 integrase (Human immunodeficiency virus 1), sequence (Q7ZJM1 as listed by the source): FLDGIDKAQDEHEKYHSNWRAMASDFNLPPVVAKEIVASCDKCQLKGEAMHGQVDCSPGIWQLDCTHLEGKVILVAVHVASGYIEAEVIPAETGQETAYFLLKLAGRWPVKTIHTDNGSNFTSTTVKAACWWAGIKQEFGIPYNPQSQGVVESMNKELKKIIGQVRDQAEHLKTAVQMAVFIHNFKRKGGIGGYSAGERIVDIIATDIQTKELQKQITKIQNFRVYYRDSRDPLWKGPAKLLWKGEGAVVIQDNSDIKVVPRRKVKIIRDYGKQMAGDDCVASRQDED

`C=C1CC[C@]2(C)[C@@H](C)CCC[C@]2(C)[C@H]1CC/C(C)=C/Cn1c[n+](C)c2ncnc(N)c21`: the outcome (in the experiment with Escherichia coli; in the experiment on Pseudomonas aeruginosa; in [1]) was inactive.
As usually defined, the IC50 is the midpoint of a concentration-inhibition curve. Low values mean higher potency, high ones lower potency. `CC1=CCC[C@@H]2[C@@](C)(CC/C(C)=C/Cn3c[n+](C)c4ncnc(N)c43)[C@H](C)CC[C@@]12C.[Cl-]` [AGELASINE B]: the IC50 was 1.56 µg/mL in [2]; 6.25 µg/mL in the experiment with Enterococcus faecalis; 0.78 µg/mL with Staphylococcus aureus [3]; 3.13 µg/mL in the experiment on Staphylococcus aureus [4]; more than 12.5 µg/mL in the experiment on Candida albicans; 3.13 µg/mL in the experiment on Cryptococcus neoformans. The IC50 with Enterococcus faecium was found to be 3.13 µg/mL.
For the compound `NC(=O)c1ccc(Br)[nH]1`, the IC50 is 3.13 µg/mL (≈ 16.6 µM) in [2]; 6.25 µg/mL (≈ 33.1 µM) in the experiment with Enterococcus faecalis; 0.78 µg/mL (≈ 4.13 µM) with Staphylococcus aureus [3]; 3.13 µg/mL (≈ 16.6 µM) in the experiment with Staphylococcus aureus [4]; 6.25 µg/mL (≈ 33.1 µM) in the experiment with Candida albicans; 3.13 µg/mL (≈ 16.6 µM) in the experiment on Cryptococcus neoformans. This compound gave a half-maximal inhibitory concentration (IC50) in the experiment on Enterococcus faecium of 3.13 µg/mL (≈ 16.6 µM). The result (in the experiment on Escherichia coli; with Pseudomonas aeruginosa; in experiment [1]) was inactive.
Turning to `COCNC(=O)c1ccc(Br)[nH]1`, the outcome (in the experiment with Escherichia coli; with Pseudomonas aeruginosa; in experiment [1]) was inactive.
